Source: patent publication US20120065063A1, “3-Aryl-4-(2,6-dimethylbenzylidene)isoxazol-5(4H)-ones as Fungicides” (Bayer CropScience AG, priority 2010, published 2012)

Test: log P by HPLC on reversed-phase columns (EEC directive 79/831 Annex V.A8)
Type: physicochemical
Conditions: for chromatographic logP: reversed-phase HPLC column (C18), preparation examples, acidic range pH 2.7, formic acid, read-out: log P (HCOOH); for log P: acidic range pH 2.7, 0.1% aqueous formic acid/acetonitrile
Procedure: The log P values were measured according to EEC directive 79/831 Annex V.A8 by HPLC (High Performance Liquid Chromatography) on reversed-phase columns (C 18), using the method below:
The determination was carried out in the acidic range at pH 2.7 using the mobile phases 0.1% aqueous formic acid and acetonitrile; linear gradient from 10% acetonitrile to 95% acetonitrile.

| SMILES | chromatographic logP | log P |
| --- | --- | --- |
| COC(=O)CC(=O)c1cccc(C(F)(F)F)c1 [methyl 3-trifluoromethylbenzoylacetate] | 2.57 | – |
| COc1ccccc1C1=NOC(=O)/C1=C\c1c(C)cccc1C [Compound I-18, 4-(2,6-dimethylbenzylidene)-3-(2-methoxyphenyl)-1,2-oxazol-5(4H)-one] | 3.69 | – |
| Cc1cc(C)c(C=C2C(=O)ON=C2c2ccccc2)c(C)c1 [Compound I-13] | – | 4.01 |
| Cc1cc(C)c(/C=C2\C(=O)ON=C2c2ccc(F)cc2)c(C)c1 [Compound I-68, 4-(2,4,6-trimethylbenzylidene)-3-(4-fluorophenyl)-1,2-oxazol-5(4H)-one] | 4.08 | – |
| Cc1cc(C)c(C=C2C(=O)ON=C2c2cc(F)ccc2Cl)c(C)c1 [Compound I-38] | – | 4.42 |
| CCOc1ccccc1C1=NOC(=O)C1=Cc1c(C)cc(C)cc1C [Compound I-26] | – | 4.42 |
| COc1ccccc1C1=NOC(=O)C1 [3-(2-methoxyphenyl)isoxazol-5(4H)-one] | 1.67 | – |
| Cc1cccc(C)c1C=C1C(=O)ON=C1c1ccccc1[N+](=O)[O-] [Compound I-4] | – | 3.40 |
| Cc1cccc(C)c1C=C1C(=O)ON=C1c1ccccc1OCc1ccccc1 [Compound I-31] | – | 4.51 |
| Cc1cccc(C2=NOC(=O)C2=Cc2c(C)cc(C)cc2C)c1 [Compound I-47] | – | 4.45 |
| Cc1cc(C)c(C=C2C(=O)ON=C2c2cccc([N+](=O)[O-])c2)c(C)c1 [Compound I-46] | – | 3.85 |
| Cc1cc(C)c(C=C2C(=O)ON=C2c2cc(Br)ccc2Cl)c(C)c1 [Compound I-41] | – | 4.83 |
| Cc1cccc(C)c1C=C1C(=O)ON=C1c1cc(Br)ccc1Br [Compound I-44] | – | 4.57 |
| Cc1cc(C)c(C=C2C(=O)ON=C2c2ccc(C)c(C)c2)c(C)c1 [Compound I-49] | – | 4.81 |
| Cc1cc(C)c(C=C2C(=O)ON=C2c2cccc(Cl)c2Cl)c(C)c1 [Compound I-33] | – | 4.80 |
| Cc1cc(C)c(C=C2C(=O)ON=C2c2ccccc2SC(F)F)c(C)c1 [Compound I-32] | – | 4.27 |
| Cc1ccc(C2=NOC(=O)C2=Cc2c(C)cccc2C)cc1C [Compound I-50] | – | 4.41 |
| COc1ccc(C2=NOC(=O)C2=Cc2c(C)cc(C)cc2C)cc1OC [Compound I-54] | – | 4.09 |
| Cc1cc(C)c(C=C2C(=O)ON=C2c2ccc(C(C)(C)C)cc2)c(C)c1 [Compound I-61] | – | 5.43 |
| Cc1cc(C)cc(C2=NOC(=O)C2=Cc2c(C)cc(C)cc2C)c1 [Compound I-48] | – | 4.88 |
| O=C1CC(c2cccc(C(F)(F)F)c2)=NO1 [3-(3-trifluoromethylphenyl)isoxazol-5(4H)-one] | 2.4 | – |
| CCOc1ccccc1C1=NOC(=O)C1=Cc1c(C)cccc1C [Compound I-27] | – | 4.00 |
| Cc1cc(C)c(C=C2C(=O)ON=C2c2ccccc2OC(F)(F)F)c(C)c1 [Compound I-2] | – | 4.59 |
| COc1cccc(C2=NOC(=O)C2=Cc2c(C)cccc2C)c1OC [Compound I-20] | – | 3.73 |
| Cc1cc(C)c(C=C2C(=O)ON=C2c2cc(Br)ccc2Br)c(C)c1 [Compound I-43] | – | 5.05 |
| Cc1ccc(C2=NOC(=O)C2=Cc2c(C)cc(C)cc2C)cc1 [Compound I-66] | – | 4.44 |
| Cc1cc(C)c(C=C2C(=O)ON=C2c2cc(F)ccc2F)c(C)c1 [Compound I-36] | – | 4.12 |

| SMILES | chromatographic logP | log P |
| --- | --- | --- |
| Cc1cc(C)c(C=C2C(=O)ON=C2c2cc(Cl)ccc2Cl)c(C)c1 [Compound I-40] | – | 4.71 |
| COc1ccc(C2=NOC(=O)C2=Cc2c(C)cc(C)cc2C)cc1 [Compound I-67] | – | 4.00 |
| Cc1cc(C)c(C=C2C(=O)ON=C2c2ccc(Cl)c(Cl)c2)c(C)c1 [Compound I-57] | – | 4.95 |
| Cc1cc(C)c(C=C2C(=O)ON=C2c2ccc(OCc3ccccc3)cc2)c(C)c1 [Compound I-64] | – | 5.01 |
| Cc1cc(C)cc(C2=NOC(=O)C2=Cc2c(C)cccc2C)c1 [Compound I-51] | – | 4.49 |
| Cc1cc(C)c(C=C2C(=O)ON=C2c2ccccc2C(F)(F)F)c(C)c1 [Compound I-1] | – | 4.34 |
| Cc1cc(C)c(C=C2C(=O)ON=C2c2ccccc2Cl)c(C)c1 [Compound I-28] | – | 4.38 |
| Cc1cccc(C)c1C=C1C(=O)ON=C1c1cc(Br)ccc1Cl [Compound I-42] | – | 4.46 |
| Cc1cc(C)c(C=C2C(=O)ON=C2c2ccccc2F)c(C)c1 [Compound I-23] | – | 4.07 |
| Cc1cc(C)c(C=C2C(=O)ON=C2c2ccc(C(F)(F)F)cc2)c(C)c1 [Compound I-59] | – | 4.62 |
| COc1cc(OC)cc(C2=NOC(=O)C2=Cc2c(C)cc(C)cc2C)c1 [Compound I-53] | – | 4.21 |
| Cc1cc(C)c(C=C2C(=O)ON=C2c2ccccc2OCc2ccccc2)c(C)c1 [Compound I-30] | – | 4.86 |
| Cc1cccc(C)c1C=C1C(=O)ON=C1c1cccc(Cl)c1Cl [Compound I-34] | – | 4.31 |
| CCOc1ccc(C2=NOC(=O)C2=Cc2c(C)cc(C)cc2C)cc1 [Compound I-69] | – | 4.46 |
| Cc1cc(C)c(C=C2C(=O)ON=C2c2cccc(C(F)(F)F)c2)c(C)c1 [Compound I-45] | – | 4.62 |
| Cc1cc(C)c(C=C2C(=O)ON=C2c2ccc(OC(F)(F)F)cc2)c(C)c1 [Compound I-60] | – | 4.73 |
| Cc1cc(C)c(C=C2C(=O)ON=C2c2ccccc2I)c(C)c1 [Compound I-22] | – | 4.51 |
| Cc1cc(C)c(C=C2C(=O)ON=C2c2ccc([N+](=O)[O-])cc2)c(C)c1 [Compound I-65] | – | 3.99 |
| Cc1cc(C)c(C=C2C(=O)ON=C2c2ccc(Cl)cc2Cl)c(C)c1 [Compound I-35] | – | 4.94 |
| COc1ccc(F)cc1C1=NOC(=O)C1=Cc1c(C)cc(C)cc1C [Compound I-17] | – | 4.12 |
| Cc1cc(C)c(C=C2C(=O)ON=C2c2ccccc2[N+](=O)[O-])c(C)c1 [Compound I-3] | – | 3.76 |
| Cc1cc(C)c(/C=C2\C(=O)ON=C2c2cccc(C(F)(F)F)c2)c(C)c1 [Compound 1-59, 4-(2,4,6-trimethylbenzylidene)-3-(3-trifluoromethylphenyl)-1,2-oxazol-5(4H)-one] | 4.62 | – |
| COc1cccc(C2=NOC(=O)C2=Cc2c(C)cc(C)cc2C)c1OC [Compound I-16] | – | 4.08 |
| COc1cccc(OC)c1C1=NOC(=O)C1=Cc1c(C)cc(C)cc1C [Compound I-15] | – | 3.95 |
| Cc1cccc(C)c1C=C1C(=O)ON=C1c1ccccc1 [Compound I-52] | – | 3.68 |
| Cc1cc(C)c(C=C2C(=O)ON=C2c2cccc(Cl)c2)c(C)c1 [Compound I-56] | – | 4.48 |
